Experimental data published in patent US10710986B2, “PD-1/PD-L1 inhibitors” (Gilead Sciences, Inc., priority 2018, dated 2020).

Biological target: PD-1/PD-L1 (Homo sapiens (Human), UniProt Q9NZQ7)
Assay: PD-1/PD-L1 biochemical protein-protein interaction assay (ALPHA)
Conditions: 0.3 nM His tagged PD-L1, 2.5 nM biotinylated Fc-PD-1, 60 minutes at 25° C., read-out: IC50 PD-L1-PD1

Sequence of PD-1/PD-L1 (Q9NZQ7 19-238): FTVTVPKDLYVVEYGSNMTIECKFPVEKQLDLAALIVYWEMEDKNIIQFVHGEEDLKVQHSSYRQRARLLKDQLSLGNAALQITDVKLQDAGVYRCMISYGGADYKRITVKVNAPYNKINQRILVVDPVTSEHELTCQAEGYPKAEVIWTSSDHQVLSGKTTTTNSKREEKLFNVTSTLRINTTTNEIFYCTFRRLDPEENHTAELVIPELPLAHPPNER

SMILES	IC50 [nM]
COc1nc(-c2cccc(-c3cccc(-c4ccc5c(CN6CC7(CNC(=O)C7)C6)cn(C)c5n4)c3Cl)c2Cl)cnc1CN1CC2(CNC(=O)C2)C1 [compound 493]	0.109
COc1nc(-c2cccc(-c3cccc(-c4ccc5c(CNC[C@@H]6CCC(=O)N6)cn(C)c5n4)c3Cl)c2Cl)cnc1CNC[C@@H]1CCC(=O)N1 [compound 495]	0.247
COc1nc(-c2cccc(-c3cccc(-c4cnc(CNC[C@@H]5CCC(=O)N5)c(OC)n4)c3Cl)c2F)ccc1CNC[C@@H]1CCC(=O)N1 [compound 498]	0.169
COc1nc(-c2cccc(-c3cccc(-c4cnc(CN5CC[C@H](C(C)(C)O)C5)c(OC)n4)c3Cl)c2Cl)cnc1CN1CC[C@H](C(C)(C)O)C1 [compound 500]	0.232
COc1nc(-c2cccc(-c3cccc(-c4cnc(CN5CC[C@](C)(O)C5)c(OC)n4)c3Cl)c2Cl)cnc1CNC[C@@H]1CCC(=O)N1 [compound 510]	0.192
COc1nc(-c2cccc(-c3cccc(-c4cnc(CN5CC[C@H](C(=O)O)C5)c(OC)n4)c3Cl)c2Cl)ccc1CNC[C@@H]1CCC(=O)N1 [compound 513]	0.064
COc1nc(-c2cccc(-c3cccc(-c4cnc(CN5CCC(c6cc[nH]n6)C5)c(OC)n4)c3Cl)c2Cl)cnc1CNC[C@@H]1CCC(=O)N1 (stereo partly shown) [compound 515]	0.342
COc1nc(-c2cccc(-c3cccc(-c4cnc(CN5CC[C@H](C(N)=O)C5)c(OC)n4)c3Cl)c2Cl)cnc1CNC[C@@H]1CCC(=O)N1 [compound 517]	0.106
COc1nc(-c2cccc(-c3cccc(-c4cnc(CNCCc5cnccn5)c(OC)n4)c3Cl)c2Cl)cnc1CNCCc1cnccn1 [compound 518]	0.144
COc1nc(-c2cccc(-c3cccc(-c4cnc(CNC[C@@H]5CCC(=O)N5)c(OC)n4)c3Cl)c2Cl)cnc1CNCCc1cncnc1 [compound 520]	0.072
COc1nc(-c2cccc(-c3cccc(-c4cnc(CN5C[C@H](O)[C@@H](O)C5)c(OC)n4)c3Cl)c2Cl)cnc1CN1C[C@H](O)[C@@H](O)C1 [compound 526]	0.168
COc1nc(-c2cccc(-c3cccc(-c4cnc(CN5CC(C(N)=O)C5)c(OC)n4)c3Cl)c2Cl)cnc1CN1CC(C(N)=O)C1 [compound 527]	0.089
COc1nc(-c2cccc(-c3cccc(-c4cnc(CN5CCC(N6CCNC6=O)C5)c(OC)n4)c3Cl)c2Cl)cnc1CNC[C@@H]1CCC(=O)N1 (stereo partly shown) [compound 528]	0.064
COC[C@@H]1C[C@H](OC)CN1Cc1ncc(-c2cccc(-c3cccc(-c4cnc(CNC[C@@H]5CCC(=O)N5)c(OC)n4)c3Cl)c2Cl)nc1OC [compound 530]	0.212
COc1nc(-c2cccc(-c3cccc(-c4cnc(CN5CC[C@@H](C(N)=O)C5)c(OC)n4)c3Cl)c2Cl)cnc1CN1CC[C@@H](C(N)=O)C1 [compound 532]	0.273
COc1nc(-c2cccc(-c3cccc(-c4cnc(CN5CC[C@@H](C(N)=O)C5)c(OC)n4)c3Cl)c2Cl)cnc1CNC[C@@H]1CCC(=O)N1 [compound 535]	0.095
COc1nc(-c2cccc(-c3cccc(-c4cnc(CN[C@H]5C[C@@H](OC(F)F)C5)c(OC)n4)c3Cl)c2Cl)cnc1CNC[C@@H]1CCC(=O)N1 [compound 536]	0.276
COc1nc(-c2cccc(-c3cccc(-c4cnc(CNC[C@@H]5CCC(=O)N5)c(OC)n4)c3Cl)c2Cl)cnc1CNCC[C@@H]1CNC(=O)C1 [compound 539]	0.171
COc1nc(-c2cccc(-c3cccc(-c4cnc(CNCC[C@H]5CNC(=O)C5)c(OC)n4)c3Cl)c2Cl)cnc1CNCC[C@H]1CNC(=O)C1 [compound 540]	0.072
COc1nc(-c2cccc(-c3cccc(-c4cnc(CN5CCC[C@@H]6C(=O)NC[C@@H]65)c(OC)n4)c3Cl)c2Cl)cnc1CNC[C@@H]1CCC(=O)N1 [compound 542]	0.392
COc1nc(-c2cccc(-c3cccc(-c4cnc(CNC[C@@H]5CCC(=O)N5)c(OC)n4)c3Cl)c2Cl)cnc1CNCC1CCN(C)C1=O (stereo partly shown) [compound 543]	0.2
COc1nc(-c2cccc(-c3cccc(-c4cnc(CNCC56CC(O)(C5)C6)c(OC)n4)c3Cl)c2Cl)cnc1CNC[C@@H]1CCC(=O)N1 [compound 545]	0.214
C#CC1(O)CN(Cc2ncc(-c3cccc(-c4cccc(-c5cnc(CN6CC(O)(C#C)C6)c(OC)n5)c4Cl)c3Cl)nc2OC)C1 [compound 550]	0.593

Further molecules by falling IC50, results first:

IC50 [nM]	SMILES
0.665	COc1nc(-c2cccc(-c3cccc(-c4cnc(CN5CC(O)(C6CC6)C5)c(OC)n4)c3Cl)c2Cl)cnc1CN1CC(O)(C2CC2)C1 [compound 548]
0.464	C#CC1(O)CN(Cc2ncc(-c3cccc(-c4cccc(-c5cnc(CNC[C@@H]6CCC(=O)N6)c(OC)n5)c4Cl)c3Cl)nc2OC)C1 [compound 551]
0.386	OC1CN(Cc2ncc(-c3cccc(-c4cccc(-c5cnc(CN6CC(O)C6)c(N6CCC6)n5)c4Cl)c3Cl)nc2N2CCC2)C1 [compound 496]
0.299	COc1nc(-c2cccc(-c3cccc(-c4cnc(CN5CCC(C(=O)N(C)C)C5)c(OC)n4)c3Cl)c2Cl)cnc1CNC[C@@H]1CCC(=O)N1 (stereo partly shown) [compound 534]
0.277	COc1nc(-c2cccc(-c3cccc(-c4cnc(CN5C[C@@H](O)[C@@H](O)C5)c(OC)n4)c3Cl)c2Cl)cnc1CN1C[C@@H](O)[C@@H](O)C1 [compound 519]
0.276	COc1nc(-c2cccc(-c3cccc(-c4cnc(CN5CC6(CNC(=O)C6)C5)c(OC)n4)c3Cl)c2F)ccc1CN1CC2(CNC(=O)C2)C1 [compound 497]
0.238	COc1nc(-c2cccc(-c3cccc(-c4cnc(CNCC56CC(O)(C5)C6)c(OC)n4)c3Cl)c2Cl)cnc1CNCC12CC(O)(C1)C2 [compound 544]
0.225	COc1nc(-c2cccc(-c3cccc(-c4cnc(CN5CCC(C(=O)N(C)C)C5)c(OC)n4)c3Cl)c2Cl)cnc1CN1CCC(C(=O)N(C)C)C1 (stereo not shown) [compound 531]
0.203	COc1nc(-c2cccc(-c3cccc(-c4cnc(CN5CC[C@@H](C(C)(C)O)C5)c(OC)n4)c3Cl)c2Cl)cnc1CN1CC[C@@H](C(C)(C)O)C1 [compound 499]
0.199	COc1nc(-c2cccc(-c3cccc(-c4cnc(CNCC[C@@H]5CNC(=O)C5)c(OC)n4)c3Cl)c2Cl)cnc1CNCC[C@@H]1CNC(=O)C1 [compound 538]
0.197	COc1nc(-c2cccc(-c3cccc(-c4cnc(CN[C@H]5C[C@H](CO)C5)c(OC)n4)c3Cl)c2Cl)cnc1CNC[C@@H]1CCC(=O)N1 [compound 511]
0.194	COc1nc(-c2cccc(-c3cccc(-c4cnc(CN5CC(O)(C6CC6)C5)c(OC)n4)c3Cl)c2Cl)cnc1CNC[C@@H]1CCC(=O)N1 [compound 549]
0.181	COc1nc(-c2cccc(-c3cccc(-c4cnc(CN5CCC(O)(CO)C5)c(OC)n4)c3Cl)c2Cl)cnc1CNC[C@@H]1CCC(=O)N1 (stereo partly shown) [compound 523]
0.139	COc1nc(-c2cccc(-c3cccc(-c4ccc5c(CN6CC7(CCC(=O)N7)C6)cn(C)c5n4)c3Cl)c2Cl)cnc1CN1CC2(CCC(=O)N2)C1 [compound 494]
0.115	COc1nc(-c2cccc(-c3cccc(-c4cnc(CN5C[C@@H](O)[C@@H](O)C5)c(OC)n4)c3Cl)c2Cl)cnc1CNC[C@@H]1CCC(=O)N1 [compound 524]
0.106	COc1nc(-c2cccc(-c3cccc(-c4cnc(CNC5CCOCC5)c(OC)n4)c3Cl)c2Cl)cnc1CNC[C@@H]1CCC(=O)N1 [compound 509]

IC50 [nM]	SMILES
0.105	COc1nc(-c2cccc(-c3cccc(-c4cnc(CN5CCC(N6CCNC6=O)C5)c(OC)n4)c3Cl)c2Cl)cnc1CN1CCC(N2CCNC2=O)C1 (stereo not shown) [compound 525]
0.101	COc1nc(-c2cccc(-c3cccc(-c4cnc(CNCCC(=O)O)c(OC)n4)c3Cl)c2Cl)ccc1CNC[C@@H]1CCC(=O)N1 [compound 512]
0.096	COc1nc(-c2cccc(-c3cccc(-c4cnc(CN5C[C@@H](CO)[C@H](C)C5)c(OC)n4)c3Cl)c2Cl)cnc1CN1C[C@@H](CO)[C@H](C)C1 [compound 533]
0.094	COc1nc(-c2cccc(-c3cccc(-c4cnc(CNC[C@@H]5CCC(=O)N5)c(OC)n4)c3Cl)c2Cl)cnc1CNCC[C@H]1CNC(=O)C1 [compound 541]
0.092	COc1nc(-c2cccc(-c3cccc(-c4ccc5c(CN6CC(O)C6)cn(C)c5n4)c3Cl)c2Cl)cnc1CN1CC(O)C1 [compound 492]
0.091	COc1nc(-c2cccc(-c3cccc(-c4cnc(CN5C[C@H](O)[C@@H](O)C5)c(OC)n4)c3Cl)c2Cl)cnc1CNC[C@@H]1CCC(=O)N1 [compound 529]
0.09	COc1nc(-c2cccc(-c3cccc(-c4cnc(CN5CC[C@@H](C(=O)O)C5)c(OC)n4)c3Cl)c2Cl)ccc1CNC[C@@H]1CCC(=O)N1 [compound 514]
0.089	COc1nc(-c2cccc(-c3cccc(-c4cnc(CNCC5CN(S(C)(=O)=O)C5)c(OC)n4)c3Cl)c2Cl)cnc1CNCC1CN(S(C)(=O)=O)C1 [compound 546]
0.087	COc1nc(-c2cccc(-c3cccc(-c4cnc(CN5CC[C@@H](C(C)(C)O)C5)c(OC)n4)c3Cl)c2Cl)cnc1CNC[C@@H]1CCC(=O)N1 [compound 501]
0.084	COc1nc(-c2cccc(-c3cccc(-c4cnc(CN5CCC(C(N)=O)CC5)c(OC)n4)c3Cl)c2Cl)cnc1CNC[C@@H]1CCC(=O)N1 [compound 508]
0.071	COc1nc(-c2cccc(-c3cccc(-c4cnc(CNC[C@@H]5CCC(=O)N5)c(OC)n4)c3Cl)c2Cl)cnc1CNCCc1cnccn1 [compound 521]
0.064	COc1nc(-c2cccc(-c3cccc(-c4cnc(CN5CC[C@H](C(C)(C)O)C5)c(OC)n4)c3Cl)c2Cl)cnc1CNC[C@@H]1CCC(=O)N1 [compound 502]
0.064	COc1nc(-c2cccc(-c3cccc(-c4cnc(CN5CC[C@H](O)[C@@H]5C)c(OC)n4)c3Cl)c2Cl)cnc1CNC[C@@H]1CCC(=O)N1 [compound 516]
0.064	COc1nc(-c2cccc(-c3cccc(-c4cnc(CN(CCO)CCO)c(OC)n4)c3Cl)c2Cl)cnc1CNC[C@@H]1CCC(=O)N1 [compound 522]
0.064	COc1nc(-c2cccc(-c3cccc(-c4cnc(CN5CCC6(CCC(=O)N6)C5)c(OC)n4)c3Cl)c2Cl)cnc1CN1CCC2(CCC(=O)N2)C1 (stereo not shown) [compound 537]
0.064	COc1nc(-c2cccc(-c3cccc(-c4cnc(CNC[C@@H]5CCC(=O)N5)c(OC)n4)c3Cl)c2Cl)cnc1CNCC1CN(S(C)(=O)=O)C1 [compound 547]
